{"source": "patent US20240024317A1", "about": "“CANCER TREATMENT USING BOSENTAN IN COMBINATION WITH A CHECKPOINT INHIBITOR” (Materia Therapeutics Inc., priority 2020, published 2024)", "key": {"[1]": {"tested_on": "4T1 tumors", "assay": "Tumor volume over time, bosentan pre-treatment plus anti-PD-1/anti-CTLA-4 (Example 5)", "assay_type": "in vivo, mice", "conditions": "pre-treated with bosentan 1 mg/kg, then immunotherapy cocktail", "procedure": "Syngeneic tumor models and treatment protocols. Orthotopic models for murine mammary tumors were generated by implantation of 5×10^4 4T1 cancer cells in 40 μL of serum-free medium into the third mammary fat pad of 6-8 weeks-old BALB/c mice. Mice were purchased from the Cyprus Institute of Neurology and Genetics and all in vivo experiments were conducted in accordance with the animal welfare regulations and guidelines of the Republic of Cyprus and the European Union (European Directive 2010/63/EE and Cyprus Legislation for the protection and welfare of animals, Laws 1994-2013) under a license acquired and approved (No CY/EXP/PR.L2/2018, CY/EXP/PR.L14/2019, CY/EXP/PR.L15/2019, CY/EXP/PR.L03/2020) by the Cyprus Veterinary Services committee, the Cyprus national authority for monitoring animal research for all academic institutions.\nTranilast at 200 mg/kg, bosentan at 1 mg/kg, or equal volume of diluent (control group) was administered by intraperitoneal injection (i.p.) once a day for 14 days, starting from once the tumor volumes reached an average size of 5 mm diameter. […]\nPlanar dimensions (x, y) of tumor were monitored every 2-3 days using a digital caliper and tumor volume was estimated from the volume of an ellipsoid and assuming that the third dimension, z, is equal to the sqrt(x y). […]"}, "[2]": {"tested_on": "orthotopic E0771 breast tumors", "assay": "Pimonidazole hypoxia staining", "assay_type": "in vivo, mice", "conditions": "1 mg/kg; E0771 (FIG. 2A)", "procedure": "Because reducing collagen I levels and tissue stiffness decompresses vessels, it was hypothesized that hypoxia, which is an indicator of decreased blood flow to the tumor, would be reduced with bosentan treatment. […] For the hypoxia studies, Mice bearing orthotopic E0771 or 4T1 breast tumors were injected (intraperitoneal) with 60 mg/kg of pimonidazole HCl at 2 hr prior to tumor removal. Prior to tumors excision, animals were anesthetized via Avertin (200 mg/kg, intraperitoneal). Primary tumors were then excised, fixed in 4% PFA, embedded in OCT and processed accordingly for IHC. Hypoxic regions were detected using the mouse anti-pimonidazole RED 549 conjugate antibody (HP7-100Kit, 1:100). Hypoxic area fraction across different treatment groups was normalized to DAPI staining. For fluorescent immunohistochemistry, tumors were removed, washed twice in 1× PBS for 10 min and incubated with 4% PFA overnight at 4° C. The fixative was aspirated, and samples washed twice in 1× PBS for 10 min. Fixed tissues were embedded in optimal cutting temperature compound in cryomolds (Tissue-Tek) and frozen completely at −20° C. […] CD31 signal was detected with Alexa Fluor-488 anti-rabbit IgG (H+L) and CD3 signal with Alexa Fluor-647 anti-rat IgG (H+L) secondary antibodies. Tumor associated T cell and vessel content was determined by the CD31 and CD3 area fraction normalized to DAPI staining. […]"}}}
{"smiles": "COc1ccccc1Oc1c(NS(=O)(=O)c2ccc(C(C)(C)C)cc2)nc(-c2ncccn2)nc1OCCO", "note": "[bosentan, 4-tert-butyl-N-[6-(2-hydroxy-ethoxy)-5-(2-methoxy-phenoxy)-2-(pyrimidin-2-yl)pyrimidin-4-yl] benzenesulfonamide]", "values": [{"measurement": "tumor volume as a function of time", "setting": "[1]", "value": "effectively stop further tumor growth"}, {"measurement": "hypoxia (pimonidazole staining)", "setting": "[2]", "value": "reduced hypoxia"}]}
